From article PMC7714403 (JCI Insight, 2020)
Where two headings read alike, the source gives them in different places.

How the values were obtained:
Assay in all cases: KiNativ, MOLM13 live cells
Format in all cases: cell-based
[1] = target: LKB1 (Homo sapiens, UniProt Q15831); conditions: MOLM-13; 100 nM, 2 hours; Lys2; read-out: Inhibition vs DMSO
Method: (§1) Samples were analyzed by KiNativ in situ kinase profiling by ActivX Biosciences.

[2] = target: T1, LATS1 (Homo sapiens, UniProt O95835); conditions: MOLM-13, 2 h, 100 nM
T1 sequence (O95835 1-1130): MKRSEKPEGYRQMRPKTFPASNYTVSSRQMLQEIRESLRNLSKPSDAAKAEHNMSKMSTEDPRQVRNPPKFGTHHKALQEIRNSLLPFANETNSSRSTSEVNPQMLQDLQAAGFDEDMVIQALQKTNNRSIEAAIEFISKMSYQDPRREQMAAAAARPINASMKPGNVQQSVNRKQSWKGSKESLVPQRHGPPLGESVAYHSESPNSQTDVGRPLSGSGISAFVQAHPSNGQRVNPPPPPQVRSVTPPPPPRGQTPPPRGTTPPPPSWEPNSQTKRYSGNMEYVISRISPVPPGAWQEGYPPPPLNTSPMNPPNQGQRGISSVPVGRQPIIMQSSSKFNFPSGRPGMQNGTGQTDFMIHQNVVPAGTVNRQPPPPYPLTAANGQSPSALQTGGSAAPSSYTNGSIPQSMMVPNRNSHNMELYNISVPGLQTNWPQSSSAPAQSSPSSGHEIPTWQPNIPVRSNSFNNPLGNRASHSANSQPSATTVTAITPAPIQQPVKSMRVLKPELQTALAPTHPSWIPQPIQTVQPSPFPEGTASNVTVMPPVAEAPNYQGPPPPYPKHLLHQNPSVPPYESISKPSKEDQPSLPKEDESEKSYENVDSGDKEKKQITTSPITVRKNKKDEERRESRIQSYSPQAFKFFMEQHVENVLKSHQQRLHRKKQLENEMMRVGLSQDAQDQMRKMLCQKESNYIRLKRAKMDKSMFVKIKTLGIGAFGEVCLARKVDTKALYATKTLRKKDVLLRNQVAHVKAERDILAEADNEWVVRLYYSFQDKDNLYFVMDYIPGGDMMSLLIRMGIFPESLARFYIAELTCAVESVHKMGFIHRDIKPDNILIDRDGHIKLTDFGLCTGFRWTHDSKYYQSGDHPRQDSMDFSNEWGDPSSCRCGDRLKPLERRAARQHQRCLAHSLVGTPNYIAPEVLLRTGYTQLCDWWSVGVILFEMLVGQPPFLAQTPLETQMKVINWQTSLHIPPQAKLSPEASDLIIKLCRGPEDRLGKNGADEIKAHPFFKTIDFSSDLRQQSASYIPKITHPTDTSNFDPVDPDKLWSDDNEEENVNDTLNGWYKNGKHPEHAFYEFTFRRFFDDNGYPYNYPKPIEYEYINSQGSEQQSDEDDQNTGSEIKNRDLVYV
Method: as §1

[3] = target: NDR2 (Homo sapiens, UniProt Q9Y2H1); conditions: MOLM-13; 100 nM, 2 hours; Lys1; read-out: Inhibition vs DMSO
Method: as §1

[4] = target: MST3 (Homo sapiens, UniProt Q9Y6E0); conditions: 100 nM, 2 hours; Lys2
Method: as §1

[5] = target: CHK2 (Homo sapiens, UniProt O96017); conditions: MOLM-13, 2 h, 100 nM
Method: as §1

[6] = target: T2, STLK5 (Homo sapiens, UniProt Q7RTN6); conditions: MOLM-13, 2 h, 100 nM
T2 sequence (Q7RTN6 1-431): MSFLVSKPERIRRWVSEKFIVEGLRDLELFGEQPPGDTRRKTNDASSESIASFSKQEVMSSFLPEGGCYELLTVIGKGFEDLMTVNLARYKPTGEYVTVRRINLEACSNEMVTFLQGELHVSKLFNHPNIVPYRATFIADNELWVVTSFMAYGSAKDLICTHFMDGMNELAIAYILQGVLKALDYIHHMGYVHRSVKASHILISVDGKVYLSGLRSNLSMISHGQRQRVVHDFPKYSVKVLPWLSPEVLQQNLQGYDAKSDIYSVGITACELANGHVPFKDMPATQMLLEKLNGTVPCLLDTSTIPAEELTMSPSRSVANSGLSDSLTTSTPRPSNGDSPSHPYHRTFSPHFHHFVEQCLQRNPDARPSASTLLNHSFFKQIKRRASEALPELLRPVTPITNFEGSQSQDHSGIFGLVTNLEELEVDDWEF
Method: as §1

[7] = target: PKN1 (Homo sapiens, UniProt Q16512); conditions: MOLM-13; 100 nM, 2 hours; Lys2; read-out: Inhibition vs DMSO
Method: as §1

[8] = target: PYK2 (Homo sapiens, UniProt Q14289); conditions: MOLM-13; 100 nM, 2 hours; Activation Loop; read-out: Inhibition vs DMSO
Method: as §1

[9] = target: CDK6 (Homo sapiens, UniProt Q00534); conditions: MOLM-13; 100 nM, 2 hours; Lys2; read-out: Inhibition vs DMSO
Method: as §1

[10] = target: BARK1 (Homo sapiens, UniProt P25098); conditions: MOLM-13; 100 nM, 2 hours; Lys2; read-out: Inhibition vs DMSO
Method: as §1

[11] = target: T3, JAK2 domain2 (Homo sapiens, UniProt O60674); conditions: 100 nM, 2 hours; Activation Loop
T3 construct: JAK2 domain2
Method: as §1

[12] = target: PEK (Homo sapiens, UniProt Q9NZJ5); conditions: 100 nM, 2 hours, Lys2, read-out: Inhibition vs DMSO
Method: as §1

[13] = target: LYN (Homo sapiens, UniProt P07948); conditions: MOLM-13; 100 nM, 2 hours; Activation Loop; read-out: Inhibition vs DMSO
Method: as §1

[14] = target: PIK3C3 (Homo sapiens, UniProt Q8NEB9); conditions: MOLM-13, 2 h, 100 nM, ATP, read-out: Inhibition vs DMSO
Method: as §1

[15] = target: CDK2 (Homo sapiens, UniProt P24941); conditions: 100 nM, 2 hours
Method: as §1

[16] = target: MAP3K4 (Homo sapiens, UniProt Q9Y6R4); conditions: MOLM-13, 2 h, 100 nM
Method: as §1

[17] = target: FGR (Homo sapiens, UniProt P09769); conditions: MOLM-13; 100 nM, 2 hours; Activation Loop; read-out: Inhibition vs DMSO
Method: as §1

[18] = Lys1, read-out: Inhibition vs DMSO
[19] = Lys2, read-out: Inhibition vs DMSO

Chain of PIK3C3 (Q8NEB9 whole entry): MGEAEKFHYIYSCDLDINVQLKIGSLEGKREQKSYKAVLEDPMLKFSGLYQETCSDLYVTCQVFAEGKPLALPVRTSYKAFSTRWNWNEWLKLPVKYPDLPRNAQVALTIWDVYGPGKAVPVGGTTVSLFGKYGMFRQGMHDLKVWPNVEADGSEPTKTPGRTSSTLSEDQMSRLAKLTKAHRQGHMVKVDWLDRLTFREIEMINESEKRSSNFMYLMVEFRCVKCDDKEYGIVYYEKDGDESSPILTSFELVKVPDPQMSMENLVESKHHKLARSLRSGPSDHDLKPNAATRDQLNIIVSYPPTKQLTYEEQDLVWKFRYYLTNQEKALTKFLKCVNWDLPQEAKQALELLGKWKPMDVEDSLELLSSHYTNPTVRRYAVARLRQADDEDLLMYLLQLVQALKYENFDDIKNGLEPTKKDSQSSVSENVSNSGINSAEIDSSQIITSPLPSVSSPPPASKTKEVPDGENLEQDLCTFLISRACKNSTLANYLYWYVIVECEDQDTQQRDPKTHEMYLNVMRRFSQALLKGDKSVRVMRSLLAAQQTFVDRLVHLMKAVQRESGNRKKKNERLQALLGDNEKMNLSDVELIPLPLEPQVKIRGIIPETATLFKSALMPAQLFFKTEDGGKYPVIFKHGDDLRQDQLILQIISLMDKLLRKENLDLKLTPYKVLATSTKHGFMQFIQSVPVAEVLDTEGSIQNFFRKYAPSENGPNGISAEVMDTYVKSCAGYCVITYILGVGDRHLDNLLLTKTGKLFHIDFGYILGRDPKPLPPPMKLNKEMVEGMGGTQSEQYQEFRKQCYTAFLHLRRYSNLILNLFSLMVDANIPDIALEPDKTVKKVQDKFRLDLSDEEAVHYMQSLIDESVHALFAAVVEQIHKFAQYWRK
Chain of CHK2 (O96017 whole entry): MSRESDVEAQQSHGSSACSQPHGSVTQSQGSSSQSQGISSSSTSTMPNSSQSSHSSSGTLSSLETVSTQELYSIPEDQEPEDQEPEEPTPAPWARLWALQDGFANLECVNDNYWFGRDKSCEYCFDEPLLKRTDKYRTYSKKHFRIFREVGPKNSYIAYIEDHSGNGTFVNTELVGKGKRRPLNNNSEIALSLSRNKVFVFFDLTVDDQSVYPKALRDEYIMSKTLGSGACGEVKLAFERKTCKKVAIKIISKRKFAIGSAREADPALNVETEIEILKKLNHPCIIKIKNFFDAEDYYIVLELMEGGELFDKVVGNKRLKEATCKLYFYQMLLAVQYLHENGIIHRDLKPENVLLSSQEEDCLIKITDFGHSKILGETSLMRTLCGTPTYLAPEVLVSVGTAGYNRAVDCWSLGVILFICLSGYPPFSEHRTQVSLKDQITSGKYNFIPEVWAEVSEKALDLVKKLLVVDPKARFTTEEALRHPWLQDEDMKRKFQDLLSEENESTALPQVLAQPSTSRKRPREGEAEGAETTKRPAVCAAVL
Chain of MAP3K4 (Q9Y6R4 whole entry): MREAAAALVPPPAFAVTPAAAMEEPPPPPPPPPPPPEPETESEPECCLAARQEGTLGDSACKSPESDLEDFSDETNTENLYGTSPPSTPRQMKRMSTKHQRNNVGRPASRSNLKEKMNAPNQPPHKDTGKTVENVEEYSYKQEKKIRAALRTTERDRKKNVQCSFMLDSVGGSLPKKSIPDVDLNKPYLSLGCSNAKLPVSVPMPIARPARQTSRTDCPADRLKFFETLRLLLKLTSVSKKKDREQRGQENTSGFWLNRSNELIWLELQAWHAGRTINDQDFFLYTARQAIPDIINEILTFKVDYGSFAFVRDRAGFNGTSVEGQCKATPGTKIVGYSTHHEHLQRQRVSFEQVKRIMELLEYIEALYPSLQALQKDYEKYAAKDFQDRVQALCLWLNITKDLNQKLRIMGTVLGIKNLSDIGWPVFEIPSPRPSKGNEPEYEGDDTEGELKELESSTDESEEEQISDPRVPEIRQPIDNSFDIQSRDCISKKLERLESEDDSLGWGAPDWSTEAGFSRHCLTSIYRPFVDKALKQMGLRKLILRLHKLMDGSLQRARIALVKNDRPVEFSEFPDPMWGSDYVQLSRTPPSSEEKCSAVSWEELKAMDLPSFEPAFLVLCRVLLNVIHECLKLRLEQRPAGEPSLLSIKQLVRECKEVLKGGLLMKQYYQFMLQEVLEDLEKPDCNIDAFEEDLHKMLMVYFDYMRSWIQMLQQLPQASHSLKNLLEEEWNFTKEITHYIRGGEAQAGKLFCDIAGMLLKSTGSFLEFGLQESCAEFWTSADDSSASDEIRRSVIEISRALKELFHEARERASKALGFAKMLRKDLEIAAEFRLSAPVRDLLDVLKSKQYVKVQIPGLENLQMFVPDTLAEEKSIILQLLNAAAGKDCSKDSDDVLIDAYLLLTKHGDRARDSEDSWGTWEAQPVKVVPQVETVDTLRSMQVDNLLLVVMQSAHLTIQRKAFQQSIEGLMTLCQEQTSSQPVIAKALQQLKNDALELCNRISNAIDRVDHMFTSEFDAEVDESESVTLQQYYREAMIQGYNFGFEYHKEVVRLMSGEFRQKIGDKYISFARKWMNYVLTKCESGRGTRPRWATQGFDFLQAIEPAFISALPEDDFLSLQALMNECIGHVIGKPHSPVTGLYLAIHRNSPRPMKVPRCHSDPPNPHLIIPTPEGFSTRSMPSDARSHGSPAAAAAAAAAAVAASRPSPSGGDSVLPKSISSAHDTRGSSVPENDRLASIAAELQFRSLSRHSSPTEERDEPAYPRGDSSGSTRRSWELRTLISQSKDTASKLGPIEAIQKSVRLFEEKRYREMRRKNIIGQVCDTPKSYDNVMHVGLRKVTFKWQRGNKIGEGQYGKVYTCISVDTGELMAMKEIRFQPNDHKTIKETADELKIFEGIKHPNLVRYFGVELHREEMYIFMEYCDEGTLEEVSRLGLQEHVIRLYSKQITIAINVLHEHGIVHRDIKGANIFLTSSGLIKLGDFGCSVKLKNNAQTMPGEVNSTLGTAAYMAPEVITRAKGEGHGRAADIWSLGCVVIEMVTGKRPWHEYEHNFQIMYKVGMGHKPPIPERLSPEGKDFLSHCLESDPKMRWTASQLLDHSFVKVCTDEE
Chain of PYK2 (Q14289 whole entry): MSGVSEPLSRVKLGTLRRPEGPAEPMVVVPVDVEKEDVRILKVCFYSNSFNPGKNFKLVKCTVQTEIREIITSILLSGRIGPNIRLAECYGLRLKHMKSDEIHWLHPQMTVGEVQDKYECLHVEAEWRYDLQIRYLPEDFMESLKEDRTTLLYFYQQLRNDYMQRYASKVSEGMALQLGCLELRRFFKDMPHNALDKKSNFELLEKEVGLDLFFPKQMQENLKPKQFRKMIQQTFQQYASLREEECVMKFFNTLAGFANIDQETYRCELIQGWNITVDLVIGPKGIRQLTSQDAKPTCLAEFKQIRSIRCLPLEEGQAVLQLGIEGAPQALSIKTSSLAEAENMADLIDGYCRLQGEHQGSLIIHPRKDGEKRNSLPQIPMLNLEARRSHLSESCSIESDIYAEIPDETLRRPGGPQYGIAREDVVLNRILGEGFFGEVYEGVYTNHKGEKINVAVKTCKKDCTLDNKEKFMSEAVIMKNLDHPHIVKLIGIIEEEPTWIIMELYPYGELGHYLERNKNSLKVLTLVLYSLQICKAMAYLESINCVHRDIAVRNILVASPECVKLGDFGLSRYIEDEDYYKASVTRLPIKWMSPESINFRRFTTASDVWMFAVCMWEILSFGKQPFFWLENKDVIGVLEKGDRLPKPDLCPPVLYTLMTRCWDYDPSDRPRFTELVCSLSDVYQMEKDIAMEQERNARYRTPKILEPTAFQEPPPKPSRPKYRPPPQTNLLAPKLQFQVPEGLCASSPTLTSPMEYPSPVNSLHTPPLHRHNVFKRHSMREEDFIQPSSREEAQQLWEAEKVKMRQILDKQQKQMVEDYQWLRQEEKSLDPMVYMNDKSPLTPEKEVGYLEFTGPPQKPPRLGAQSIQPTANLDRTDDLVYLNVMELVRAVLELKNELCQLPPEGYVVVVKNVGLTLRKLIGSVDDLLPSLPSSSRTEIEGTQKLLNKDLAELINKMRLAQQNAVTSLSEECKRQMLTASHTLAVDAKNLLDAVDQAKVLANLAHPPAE
Chain of FGR (P09769 whole entry): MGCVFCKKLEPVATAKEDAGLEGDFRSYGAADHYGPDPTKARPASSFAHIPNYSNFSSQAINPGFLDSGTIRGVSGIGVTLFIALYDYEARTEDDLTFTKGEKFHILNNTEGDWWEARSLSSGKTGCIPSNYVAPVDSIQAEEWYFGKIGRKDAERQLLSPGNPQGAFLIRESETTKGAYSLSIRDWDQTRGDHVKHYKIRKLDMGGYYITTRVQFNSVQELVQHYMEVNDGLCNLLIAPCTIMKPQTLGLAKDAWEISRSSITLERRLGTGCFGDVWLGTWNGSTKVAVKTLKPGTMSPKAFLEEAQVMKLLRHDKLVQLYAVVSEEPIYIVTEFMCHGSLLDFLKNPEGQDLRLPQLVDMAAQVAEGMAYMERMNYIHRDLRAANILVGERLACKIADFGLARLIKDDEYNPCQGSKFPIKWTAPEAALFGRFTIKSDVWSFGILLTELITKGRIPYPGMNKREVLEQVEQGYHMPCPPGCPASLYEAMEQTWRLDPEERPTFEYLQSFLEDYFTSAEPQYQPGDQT
Chain of NDR2 (Q9Y2H1 whole entry): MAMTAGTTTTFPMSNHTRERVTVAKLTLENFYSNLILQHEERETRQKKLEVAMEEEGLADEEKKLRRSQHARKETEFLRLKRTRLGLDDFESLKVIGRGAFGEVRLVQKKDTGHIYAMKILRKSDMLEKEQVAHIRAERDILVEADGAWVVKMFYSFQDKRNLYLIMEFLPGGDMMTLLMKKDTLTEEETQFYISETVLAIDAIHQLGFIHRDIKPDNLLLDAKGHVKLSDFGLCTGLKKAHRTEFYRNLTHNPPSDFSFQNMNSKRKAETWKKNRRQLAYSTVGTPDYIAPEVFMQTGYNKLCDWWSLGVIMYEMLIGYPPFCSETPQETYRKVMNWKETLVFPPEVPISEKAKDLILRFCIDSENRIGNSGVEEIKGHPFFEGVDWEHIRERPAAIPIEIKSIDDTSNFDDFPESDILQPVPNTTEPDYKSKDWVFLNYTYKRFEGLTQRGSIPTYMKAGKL

## CN1CCN(Cc2ccc(Nc3ncc(Cl)c(Nc4ccccc4S(=O)(=O)N(C)C)n3)cc2)CC1 [TP-0903]
[1]
  inhibition at 0.1 µM: 18.2%
[2]; [18]
  inhibition at 0.1 µM: 6.7%
[2]; [19]
  inhibition at 0.1 µM: -12.4%
[3]
  inhibition at 0.1 µM: -0.6%
[4]
  Inhibition vs DMSO: 55.3%
[5]; [18]
  inhibition at 0.1 µM: 11.3%
[5]; [19]
  inhibition at 0.1 µM: -23.4%
[6]; Activation Loop, read-out: Inhibition vs DMSO
  inhibition at 0.1 µM: 4.2%
[6]; [19]
  inhibition at 0.1 µM: -19%
[7]
  inhibition at 0.1 µM: -25.2%
[8]
  inhibition at 0.1 µM: 21.6%
[9]
  inhibition at 0.1 µM: 80.8%
[10]
  inhibition at 0.1 µM: -13.9%
[11]
  Inhibition vs DMSO: -68.6%
[12]
  inhibition at 0.1 µM: 1.7%
[13]
  inhibition at 0.1 µM: 58.8%
[14]; TEDGGKYPVIFKHGDDLR
  inhibition at 0.1 µM: -23.9%
[14]; TEDGGKYPVIFKHGDDLRQDQLILQIISLMDK
  inhibition at 0.1 µM: 2.6%
[15]; Lys1
  Inhibition vs DMSO: 2.7%
[15]; Lys2
  Inhibition vs DMSO: 16.8%
[16]; [18]
  inhibition at 0.1 µM: 8.8%
[16]; [19]
  inhibition at 0.1 µM: 6.6%
[17]
  inhibition at 0.1 µM: -35.3%
